Experimental data taken from patent publication EP0070049A1, “Derivative of acetylsalicylic acid having an analgetic, antipyretic, antiphlogistic and bronchosecretolytic activity” (UNIONE CHIMICA MEDICAMENTI- DIFME-S.p.A., priority 1981, dated 1983).

Tests used:
[1] = system: oedème induit par carraghénine injectée dans la patte de rats; experiment: Carrageenan-induced rat paw oedema (antiphlogistic activity, Winter et al); format: in vivo; details: voie orale; for Volume de l'oedème - ml ± d.s. après 3 heures: 3 heures après le traitement oedémigène; for Volume de l'oedème - ml ± d.s. après 6 heures: 6 heures après le traitement oedémigène
From the text: L'activité antiphlogistique de l'acétylsalicylate de 2(o-méthoxy-phénoxy) éthanol a été évaluée en comparaison avec celle de l'acide acétylsalicylique sur la base de la variation de volume de l'oedème induit par carraghénine injectée dans la patte de rats, suivant la technique décrite par Winter et al (Proc. Soc. Exp. Biol. Med., volume III, page 544, 1962). Les résultats de l'élaboration des épreuves sont indiqués dans le Tableau 1, dans lequel le volume de l'oedème est indiqué en millilitres z la déviation standard, et il a été mesuré 3, 4,5 et 6 heures après le traitement oedémigène; la dose de substance est indiquée en milligrammes de substance administrée par voie orale pour chaque kilogramme de poids corporel des rats; les valeurs marquées par * correspondent à une probabilité d'erreur p < 0,05, les valeurs marquées correspondent à une probabilité d'erreur p < 0,01, calculées sur les valeurs des contrôles, et les valeurs indiquées entre parenthèses indiquent l'inhibition en pour-cent calculée par rapport aux contrôles.

[2] = system: température corporelle, augmentée par l'injection intraveineuse de nucléinate de sodium dans le lapin; experiment: Antipyretic activity: rise in body temperature induced by intravenous sodium nucleinate; format: in vivo; details: for Augmentation temperature corporelle - °C ± d.s. après 1 heure: 1 heure après l'administration; for Augmentation temperature corporelle - °C ± d.s. après 2 heures: 2 heures après l'administration; for Augmentation temperature corporelle - °C ± d.s. après 3 heures: 3 heures après l'administration; for Augmentation temperature corporelle - °C ± d.s. après 4 heures: 4 heures après l'administration
From the text: L'activité antipyrétique de l'acétylsalicylate de 2(o-méthoxy-phénoxy)éthanol a été evaluée en comparaison avec celle de l'acide acétylsalicylique suivant la méthode, universellement employée, de la mesure de la variation de la température corporelle, augmentée par 1' injection intraveineuse de nucléinate de sodium dans le lapin. Les résultats de l'élaboration statistique des épreuves sont indiqués dans le suivant Tableau 2, dans lequel l'augmentation de la température corporelle est indiquée en °C ± la déviation standard, et a été mesurée 1, 2, 3 et 4 heures après l'administration; pour les autres valeurs est valable ce qui a été spécifié en relation avec le Tableau 1.

[3] = system: convulsions abdominales (writhings) induites dans le souris par une injection intrapéritonéale d'acide acétique; experiment: Acetic acid writhing test (analgesic activity, Koster and Anderson); format: in vivo; details: souris, 60 minutes après l'administration; for Frequence writhings: ± déviation standard
From the text: L'activité analgésique de l'acétylsalicylate de 2(o-méthoxy-phénoxy)éthanol a été évaluée en comparaison avec celle de l'acide acétylsalicylique sur la base de la fréquence des convulsions abdominales (writhings) induites dans le souris par une injection intrapéritonéale d'acide acétique, suivant la technique décrite par Koster et Anderson (Fed. Proc., volume 18, page 412, 1959). Les résultats de l'élaboration statistique des épreuves sont indiqués dans le suivant Tableau 3, dans lequel la fréquence des convulsions est indiquée comme nombre de convulsions par minute ± la déviation standard, et a été mesurée 60 minutes après l'administration; pour les autres valeurs est valable ce qui a été spécifié en relation avec le Tableau 1.

[4] = system: arbre bronchial de rats Wistar; experiment: Bronchosecretolytic activity: pulmonary excretion of fluorescein (Mawatari); format: in vivo; details: rats Wistar, 200 mg/Kg
From the text: L'activité bronchosécrétolytique de l'acétylsalicylate de 2(o-méthoxy-phénoxy)éthanol a été évaluée en comparaison avec celle du gaïacoléthanol, sur la base de la mesure des variations de la quantité d'indicateur (fluorescéine) trouvée dans l'arbre bronchial de rats Wistar, recueillie au moyen d'un système de lavage standardisé, après injection parentérale de l'indicateur, et mesurée au moyen d'un spectrofluorométre, suivant la méthode décrite par H.Mawatari ("Expérimental studies on the expectorant action of several drugs", Kagoshima Daigakeu Igakeu Zasshi, volume 27, page 561, 1976). Les résultats de l'élaboration statistique des épreuves sont recueillis dans le suivant tableau 4,dans lequel l' excrétion pulmonaire de fluorescéine est exprimée en microgrammes ± la déviation standard, soit dans la quantité totale trouvée, soit dans la quantité pour-cent rapportée à 100 g de poids corporel des rats. Entre parenthèses sont indiquées les valeurs de l'augmentation pour-cent par rapport aux contrôles. Pour les autres valeurs est valable ce qui été précisé en relation au Tableau 1.

rats = details: rat, in vivo, 915 mg/kg
From the text: La toxicité subaiguë de l'acétylsalicylate de 2(o-méthoxy-phénoxy)éthanol a été évaluée en comparaison avec celle de l'acide acétylsalicylique en administrant à des rats, par voie orale, des doses journalières de substance pour 10 jours, et en relevant le nombre des animaux morts, la diminution moyenne de poids des animaux traités et l'incidence des lésions gastriques relevées, distinguées en simple hyperémie, hyperémie accompagnée par hémorragie et hémorragie accompagnée par ulcérations. Les résultats des épreuves sont indiqués dans le Tableau 5, dans lequel la dose de substance administrée est exprimée en mg de substance par kg de poids corporel et par jour, et la diminution moyenne de poids corporel à la fin du traitement est exprimée en grammes.

[5] = Solubility (characteristics of the substance); format: physicochemical

COc1ccccc1OCCOC(=O)c1ccccc1OC(C)=O [acétylsalicylate de 2(o-méthoxy-phénoxy)éthanol]
inhibition en pour-cent calculée par rapport aux contrôles, après 3 heures ([1]; 100 mg/Kg): 44,0 pour-cent
Volume de l'oedème - ml ± d.s. après 3 heures ([1]; 100 mg/Kg): 0,380 ± 0,18 ml
inhibition en pour-cent calculée par rapport aux contrôles, après 4,5 heures ([1]; 100 mg/Kg, 4,5 heures): 45,0 pour-cent
Volume de l'oedème - ml ± d.s. après 4,5 heures ([1]; 100 mg/Kg, 4,5 heures après le traitement oedémigène): 0,333 ± 0,17 ml
inhibition en pour-cent calculée par rapport aux contrôles, après 6 heures ([1]; 100 mg/Kg): 39,0 pour-cent
Volume de l'oedème - ml ± d.s. après 6 heures ([1]; 100 mg/Kg): 0,291 ± 0,13 ml
inhibition en pour-cent calculée par rapport aux contrôles, après 3 heures ([1]; 200 mg/Kg): 70,0 pour-cent
Volume de l'oedème - ml ± d.s. après 3 heures ([1]; 200 mg/Kg): 0,20 + 0,1 ml
inhibition en pour-cent calculée par rapport aux contrôles, après 4,5 heures ([1]; 200 mg/Kg, 4,5 heures): 67,0 pour-cent
Volume de l'oedème - ml ± d.s. après 4,5 heures ([1]; 200 mg/Kg, 4,5 heures après le traitement oedémigène): 0,20 + 0,11 ml
inhibition en pour-cent calculée par rapport aux contrôles, après 6 heures ([1]; 200 mg/Kg): 65,0 pour-cent
Volume de l'oedème - ml ± d.s. après 6 heures ([1]; 200 mg/Kg): 0,16 + 0,1 ml
Augmentation temperature corporelle - °C ± d.s. après 1 heure ([2]; 100 mg/Kg): 1,15 ± 0,19 °C
inhibition en pour-cent calculée par rapport aux contrôles, après 2 heures ([2]; 100 mg/Kg): 22 pour-cent
Augmentation temperature corporelle - °C ± d.s. après 2 heures ([2]; 100 mg/Kg): 1,13 ± 0,2 °C
inhibition en pour-cent calculée par rapport aux contrôles, après 3 heures ([2]; 100 mg/Kg): 43 pour-cent
Augmentation temperature corporelle - °C ± d.s. après 3 heures ([2]; 100 mg/Kg): 0,94 ± 0,11 °C
inhibition en pour-cent calculée par rapport aux contrôles, après 4 heures ([2]; 100 mg/Kg): 56 pour-cent
Augmentation temperature corporelle - °C ± d.s. après 4 heures ([2]; 100 mg/Kg): 0,33 ± 0,07 °C
Augmentation temperature corporelle - °C ± d.s. après 1 heure ([2]; 200 mg/Kg): 1,1 ± 0,2 °C
inhibition en pour-cent calculée par rapport aux contrôles, après 2 heures ([2]; 200 mg/Kg): 24 pour-cent
Augmentation temperature corporelle - °C ± d.s. après 2 heures ([2]; 200 mg/Kg): 1,1 ± 0,17 °C
inhibition en pour-cent calculée par rapport aux contrôles, après 3 heures ([2]; 200 mg/Kg): 47 pour-cent
Augmentation temperature corporelle - °C ± d.s. après 3 heures ([2]; 200 mg/Kg): 0,87 ± 0,15 °C
inhibition en pour-cent calculée par rapport aux contrôles, après 4 heures ([2]; 200 mg/Kg): 62 pour-cent
Augmentation temperature corporelle - °C ± d.s. après 4 heures ([2]; 200 mg/Kg): 0,28 ± 0,05 °C
inhibition at 100 mg/kg ([3]; 1 h, 100 mg/Kg, read-out: % inhibition): 33%
inhibition at 200 mg/kg ([3]; 1 h, 200 mg/Kg, read-out: % inhibition): 49%
Frequence writhings ([3]; 100 mg/Kg): **19,5 ± 5,4 convulsions par minute
Frequence writhings ([3]; 200 mg/Kg): **14,88 ± 6,8 convulsions par minute
augmentation pour-cent par rapport aux contrôles (excrétion pulmonaire de fluorescéine, quantité totale) [4]: +90,8 pour-cent
Excrétion pulmonaire de fluorescéine Quantité pour-cent µg/100 g ([4]; rapportée à 100 g de poids corporel, ± déviation standard): 0,230 ± 0,042 µg/100 g
Excrétion pulmonaire de fluorescéine Quantité totale µg ([4]; ± déviation standard): 0,481 ± 0,068 µg
Lésions gastriques Hyperémie (rats): 4
Lésions gastriques Hyperémie + hémorragie (rats): 2
Lésions gastriques Hémorragie + ulcérations (rats): =
Nombre animaux morts (rats): 3
Δ poids moyenne (rats): -10 grammes
solubilité en solvants organiques ([5]; benzène, chloroforme, diméthylcétone, éthanol, éther éthylique, isopropanol et autres solvants organiques): soluble
solubilité dans l'eau ([5]; eau): practiquement insoluble
